Legend:
Assay type in all cases: in vivo
Settings in all cases: 312 h, rate 250 g/ha, evaluated after 13 days, 100=total damage to plant, 0=no damage to plant
[1] = test system: Alopecurus myosuroides (ALOMY); assay: Post-emergence herbicidal activity, glasshouse pot test
Outline: (§1)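 Visual damage score 0–100 (100 = plant killed) taken 13 d after treatment. Pots sown in standard soil, sprayed post-emergence at day 8; spray solution: acetone/water 50:50 + 0.5% Tween 20. Glasshouse 24/16 °C, 14 h photoperiod, 65% RH.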

Avena fatua (AVEFA) [2] = assay: as above
Outline: as §1

[3] = test system: Echinochloa crus-galli (ECHCG); assay: as above
Outline: as §1

Lolium perenne (LOLPE) [4] = assay: as above
Outline: as §1

[5] = test system: Alopecurus myosuroides (ALOMY); assay: Pre-emergence herbicidal activity, glasshouse pot test
Outline: (§2)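 Pots, standard soil; sown, 1 d cultivation, then sprayed (acetone/water 50:50, 0.5% Tween 20, aqueous dilution). Glasshouse 24/16 °C day/night, 14 h light, 65% RH. Visual damage rating at 13 d, 0–100.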

Avena fatua (AVEFA) [6] = assay: as above
Outline: as §2

[7] = test system: Echinochloa crus-galli (ECHCG); assay: as above
Outline: as §2

Lolium perenne (LOLPE) [8] = assay: as above
Outline: as §2

| SMILES | pest or weed control at 250 g/ha [1] | pest or weed control at 250 g/ha (Avena fatua (AVEFA) [2]) | pest or weed control at 250 g/ha [3] | pest or weed control at 250 g/ha (Lolium perenne (LOLPE) [4]) | pest or weed control at 250 g/ha [5] | pest or weed control at 250 g/ha (Avena fatua (AVEFA) [6]) | pest or weed control at 250 g/ha [7] | pest or weed control at 250 g/ha (Lolium perenne (LOLPE) [8]) |
| --- | --- | --- | --- | --- | --- | --- | --- | --- |
| CCc1ccc(Oc2cnc3ccc(Br)cc3n2)cc1C1=C(O)C2C(C1=O)[C@H]1CC[C@@H]2CC1 (stereo partly drawn) [Compound A-93] | 60% | 60% | 100% | 50% | 10% | 0% | 100% | 60% |
| CCc1ccc(Oc2ccc(Br)cc2C)cc1C1=C(O)[C@H]2[C@@H](C1=O)[C@@H]1CC[C@H]2O1 [Compound A-3] | 90% | 90% | 100% | 70% | 60% | 30% | 90% | 70% |
| CCc1ccc(Oc2ccc(Br)cc2Cl)cc1C1=C(O)C2C(C1=O)[C@H]1CC[C@@H]2CC1 (stereo partly drawn) [Compound A-28] | 0% | 0% | 80% | 0% | 0% | 0% | 20% | 0% |
| CCc1ccc(Oc2ccc(F)cc2)cc1C1=C(O)C2C(C1=O)[C@H]1CC[C@@H]2CC1 (stereo partly drawn) [Compound A-30] | 60% | 20% | 100% | 10% | 30% | 20% | 80% | 70% |
| CCc1ccc(Oc2ccccc2Cl)cc1C1=C(O)[C@H]2[C@@H](C1=O)[C@@H]1CC[C@H]2O1 [Compound A-8] | 20% | 20% | 70% | 20% | 0% | 0% | 40% | 40% |
| CCc1ccc(Oc2cnc3cc(Cl)ccc3n2)cc1C1=C(O)[C@H]2[C@@H](C1=O)[C@@H]1CC[C@H]2O1 [Compound A-51] | 100% | 90% | 90% | 100% | 100% | 90% | 90% | 100% |
| CCc1ccc(Oc2ccc3cc(Cl)ccc3n2)cc1C1=C(O)C2C3CCC(CC3)C2C1=O (stereo not drawn) [Compound A-53] | 80% | 80% | 90% | 90% | 80% | 0% | 100% | 80% |
| CCc1ccc(Oc2ccc(Cl)cc2Cl)cc1C1=C(O)[C@H]2[C@H]3CC[C@H](C3)[C@H]2C1=O [Compound A-21] | 40% | 0% | 70% | 20% | 20% | 0% | 40% | 30% |
| CCc1ccc(Oc2ccc(Br)cc2)cc1C1=C(O)[C@H]2[C@@H](C1=O)[C@@H]1CC[C@H]2O1 [Compound A-4] | 100% | 100% | 100% | 90% | 80% | 90% | 100% | 90% |
| CCc1ccc(Oc2nc3ccc(C(F)(F)F)cc3s2)cc1C1=C(O)C2C(C1=O)[C@H]1CC[C@@H]2CC1 (stereo partly drawn) [Compound A-108] | 90% | 90% | 100% | 70% | 30% | 10% | 80% | 50% |
| CCc1ccc(Oc2cccc(Br)c2)cc1C1=C(O)[C@H]2[C@@H](C1=O)[C@@H]1CC[C@H]2O1 [Compound A-47] | 60% | 30% | 90% | 70% | 60% | 30% | 90% | 70% |
| CCc1ccc(Oc2ncc(C(F)(F)F)cc2F)cc1C1=C(O)C2C(C1=O)[C@H]1CC[C@@H]2CC1 (stereo partly drawn) [Compound A-89] | 100% | 100% | 100% | 100% | 50% | 70% | 100% | 100% |
| CCc1ccc(Oc2ccc(Cl)c(F)c2)cc1C1=C(O)[C@H]2[C@@H](C1=O)[C@@H]1CC[C@H]2O1 [Compound A-45] | 90% | 90% | 100% | 90% | 90% | 90% | 100% | 90% |
| CCc1ccc(Oc2ccc(Cl)c(F)c2)cc1C1=C(O)[C@H]2[C@H]3CC[C@H](C3)[C@H]2C1=O [Compound A-26] | 60% | 80% | 80% | 30% | 0% | 0% | 80% | 20% |
| CCc1ccc(Oc2ncc(Cl)cc2F)cc1C1=C(O)CCC1=O [Compound A-19] | 80% | 60% | 100% | 50% | 90% | 80% | 90% | 90% |
